Results: patent publication US9302999B2, “Substituted triazoles as herbicides” (E. I. DU PONT DE NEMOURS AND COMPANY, priority 2012, dated 2016)

Key:
Format in all cases: in vivo
[1] = test system: ragweed (common ragweed, Ambrosia elation); test: Test C pre-/postemergence: ragweed
Method in brief: (§1)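 Visual injury scored 0–100 (100 = complete control) against untreated controls after 13–15 greenhouse days. Surfactant-containing solvent formulations applied either to soil after sowing (loam/sand) or over 1- to 4-leaf plants, 2–18 cm tall.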

[2] = test system: lambsquarters (Chenopodium album); test: Test C pre-/postemergence: lambsquarters
Method in brief: as §1

soybean (Glycine max) = test: Test C pre-/postemergence: soybean
Method in brief: as §1

[3] = test system: crabgrass, large (large crabgrass, Digitaria sanguinalis); test: Test A pre-/postemergence: crabgrass, large; details: for Crabgrass, Large plant response rating: visual rating on 0 to 100 scale (0 no effect, 100 complete control), approximately ten days
Method in brief: (§2)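 Soil medium was loam blended with sand; treatments pre- and postemergence were applied concurrently, postemergence at one- to two-leaf stage. Approximately ten days in greenhouse preceded visual comparison with untreated controls, scored 0 (no effect) to 100 (complete control).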

rice (Oryza sativa) = test: Test B flooded paddy: rice; details: Flood; 250 g ai/ha; applied to paddy water at 2-leaf stage; visually evaluated after 13 to 15 days
Method in brief: (§3)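 Two-leaf-stage plants, pots flooded (3 cm above soil) and treated through the water, which stayed at that depth. After 13–15 days in greenhouse conditions, visual assessment versus controls: 0 is no effect, 100 complete control, dash means no result.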

[4] = test system: blackgrass (Alopecurus myosuroides); test: Test C pre-/postemergence: blackgrass
Method in brief: as §1

[5] = test system: barnyardgrass (Echinochloa crus-galli); test: Test A pre-/postemergence: barnyardgrass; details: for Barnyardgrass plant response rating: visual rating on 0 to 100 scale (0 no effect, 100 complete control), approximately ten days
Method in brief: as §2

[6] = test system: morningglory (Ipomoea spp.); test: Test A pre-/postemergence: morningglory; details: for Morningglory plant response rating: visual rating on 0 to 100 scale (0 no effect, 100 complete control), approximately ten days
Method in brief: as §2

[7] = test system: barnyardgrass (Echinochloa crus-galli); test: Test B flooded paddy: barnyardgrass; details: Flood; 250 g ai/ha; applied to paddy water at 2-leaf stage; visually evaluated after 13 to 15 days
Method in brief: as §3

[8] = test system: pigweed (Amaranthus retroflexus); test: Test A pre-/postemergence: pigweed; details: for Pigweed plant response rating: visual rating on 0 to 100 scale (0 no effect, 100 complete control), approximately ten days
Method in brief: as §2

[9] = Postemergence, 31 g ai/ha, scale 0 to 100 (0 no effect, 100 complete control)
[10] = Postemergence, 62 g ai/ha, scale 0 to 100 (0 no effect, 100 complete control)
[11] = Postemergence, 125 g ai/ha, scale 0 to 100, 0 no effect, 100 complete control
[12] = Postemergence, 250 g ai/ha, scale 0 to 100
[13] = Preemergence, 31 g ai/ha, scale of 0 to 100, 0 is no effect, 100 is complete control
[14] = Preemergence, 62 g ai/ha, scale of 0 to 100, 0 is no effect, 100 is complete control
[15] = Preemergence, 125 g ai/ha, scale 0 to 100, 0 no effect, 100 complete control
[16] = Preemergence, 250 g ai/ha, scale 0 to 100, 0 no effect, 100 complete control
[17] = Postemergence, 125 g ai/ha, 0 to 100 scale, 0 is no effect, 100 is complete control
[18] = Preemergence, 125 g ai/ha, 0 to 100 scale where 0 is no effect and 100 is complete control
[19] = Preemergence, 500 g ai/ha, 0 to 100 scale (0 no effect, 100 complete control)

CCc1nn(-c2ccc(F)cc2)nc1Cc1ccnc(C(F)(F)F)c1 [Compound 154]
Plant response rating, Ragweed [1, 9]: 30 | Plant response rating, Ragweed [1, 10]: 30 | Plant response rating, Ragweed [1, 11]: 30 | Plant response rating, Ragweed [1, 12]: 40 | Plant response rating, Ragweed [1, 13]: 0 | Plant response rating, Ragweed [1, 14]: 0 | Plant response rating, Ragweed [1, 15]: 50 | Plant response rating, Ragweed [1, 16]: 70 | Plant response rating, Lambsquarters [2, 9]: 75 | Plant response rating, Lambsquarters [2, 10]: 98 | Plant response rating, Lambsquarters [2, 11]: 98 | Plant response rating, Lambsquarters [2, 12]: 98 | Plant response rating, Lambsquarters [2, 13]: 100 | Plant response rating, Lambsquarters [2, 14]: 100 | Plant response rating, Lambsquarters [2, 15]: 100 | Plant response rating, Lambsquarters [2, 16]: 100 | Plant response rating, Soybean (soybean (Glycine max); [9]): 45 | Plant response rating, Soybean (soybean (Glycine max); [10]): 60 | Plant response rating, Soybean (soybean (Glycine max); [11]): 65 | Plant response rating, Soybean (soybean (Glycine max); [12]): 75 | Plant response rating, Soybean (soybean (Glycine max); [13]): 0 | Plant response rating, Soybean (soybean (Glycine max); [14]): 0 | Plant response rating, Soybean (soybean (Glycine max); [15]): 15 | Plant response rating, Soybean (soybean (Glycine max); [16]): 15 | Plant response rating, Crabgrass, Large [3, 17]: 100 | Crabgrass, Large plant response rating ([3]; Postemergence, 500 g ai/ha): 100 | Plant response rating, Crabgrass, Large [3, 18]: 100 | Plant response rating, Crabgrass, Large [3, 19]: 100 | Plant response rating, Rice (0 to 100 scale, 0 is no effect, 100 is complete control) (rice (Oryza sativa)): 45 | Plant response rating, Blackgrass [4, 9]: 15 | Plant response rating, Blackgrass [4, 10]: 35 | Plant response rating, Blackgrass [4, 11]: 55 | Plant response rating, Blackgrass [4, 12]: 70 | Plant response rating, Blackgrass [4, 13]: 90 | Plant response rating, Blackgrass [4, 14]: 90 | Plant response rating, Blackgrass [4, 15]: 90 | Plant response rating, Blackgrass [4, 16]: 90 | Plant response rating, Barnyardgrass [5, 17]: 90 | Barnyardgrass plant response rating ([5]; Postemergence, 500 g ai/ha): 90 | Plant response rating, Barnyardgrass [5, 18]: 100 | Plant response rating, Barnyardgrass [5, 19]: 100 | Plant response rating, Morningglory [6, 17]: 80 | Morningglory plant response rating ([6]; Postemergence, 500 g ai/ha): 100 | Plant response rating, Morningglory [6, 18]: 20 | Plant response rating, Morningglory [6, 19]: 80 | Plant response rating, Barnyardgrass (0 to 100 scale, 0 is no effect, 100 is complete control) [7]: 60 | Plant response rating, Pigweed [8, 17]: 100 | Pigweed plant response rating ([8]; Postemergence, 500 g ai/ha): 100 | Plant response rating, Pigweed [8, 18]: 100 | Plant response rating, Pigweed [8, 19]: 100

CCc1nn(-c2ccc(C(F)(F)F)cc2)nc1Cc1ccnc(C(F)(F)F)c1 [Compound 155]
Plant response rating, Ragweed [1, 9]: 80 | Plant response rating, Ragweed [1, 11]: 85 | Plant response rating, Ragweed [1, 12]: 85 | Plant response rating, Ragweed [1, 13]: 20 | Plant response rating, Ragweed [1, 14]: 40 | Plant response rating, Ragweed [1, 15]: 85 | Plant response rating, Ragweed [1, 16]: 95 | Plant response rating, Lambsquarters [2, 9]: 80 | Plant response rating, Lambsquarters [2, 10]: 95 | Plant response rating, Lambsquarters [2, 11]: 98 | Plant response rating, Lambsquarters [2, 12]: 98 | Plant response rating, Lambsquarters [2, 13]: 90 | Plant response rating, Lambsquarters [2, 14]: 100 | Plant response rating, Lambsquarters [2, 15]: 100 | Plant response rating, Lambsquarters [2, 16]: 100 | Plant response rating, Soybean (soybean (Glycine max); [9]): 50 | Plant response rating, Soybean (soybean (Glycine max); [10]): 75 | Plant response rating, Soybean (soybean (Glycine max); [11]): 80 | Plant response rating, Soybean (soybean (Glycine max); [12]): 80 | Plant response rating, Soybean (soybean (Glycine max); [13]): 0 | Plant response rating, Soybean (soybean (Glycine max); [14]): 35 | Plant response rating, Soybean (soybean (Glycine max); [15]): 35 | Plant response rating, Soybean (soybean (Glycine max); [16]): 40 | Plant response rating, Crabgrass, Large [3, 17]: 100 | Crabgrass, Large plant response rating ([3]; Postemergence, 500 g ai/ha): 100 | Plant response rating, Crabgrass, Large [3, 18]: 100 | Plant response rating, Crabgrass, Large [3, 19]: 100 | Plant response rating, Rice (0 to 100 scale, 0 is no effect, 100 is complete control) (rice (Oryza sativa)): 50 | Plant response rating, Blackgrass [4, 9]: 40 | Plant response rating, Blackgrass [4, 10]: 70 | Plant response rating, Blackgrass [4, 11]: 85 | Plant response rating, Blackgrass [4, 12]: 90 | Plant response rating, Blackgrass [4, 13]: 90 | Plant response rating, Blackgrass [4, 14]: 90 | Plant response rating, Blackgrass [4, 15]: 90 | Plant response rating, Blackgrass [4, 16]: 90 | Plant response rating, Barnyardgrass [5, 17]: 90 | Barnyardgrass plant response rating ([5]; Postemergence, 500 g ai/ha): 90 | Plant response rating, Barnyardgrass [5, 18]: 100 | Plant response rating, Barnyardgrass [5, 19]: 100 | Plant response rating, Morningglory [6, 17]: 90 | Morningglory plant response rating ([6]; Postemergence, 500 g ai/ha): 100 | Plant response rating, Morningglory [6, 18]: 80 | Plant response rating, Morningglory [6, 19]: 90 | Plant response rating, Barnyardgrass (0 to 100 scale, 0 is no effect, 100 is complete control) [7]: 75 | Plant response rating, Pigweed [8, 17]: 100 | Pigweed plant response rating ([8]; Postemergence, 500 g ai/ha): 100 | Plant response rating, Pigweed [8, 18]: 100 | Plant response rating, Pigweed [8, 19]: 100

Cc1nn(-c2ccc(F)c(C(F)(F)F)c2)nc1Cc1ccnc(C(F)(F)F)c1 [Compound 156]
Plant response rating, Ragweed [1, 9]: 75 | Plant response rating, Ragweed [1, 10]: 75 | Plant response rating, Ragweed [1, 11]: 75 | Plant response rating, Ragweed [1, 12]: 80 | Plant response rating, Ragweed [1, 13]: 5 | Plant response rating, Ragweed [1, 14]: 10 | Plant response rating, Ragweed [1, 15]: 30 | Plant response rating, Ragweed [1, 16]: 60 | Plant response rating, Lambsquarters [2, 9]: 98 | Plant response rating, Lambsquarters [2, 10]: 98 | Plant response rating, Lambsquarters [2, 11]: 98 | Plant response rating, Lambsquarters [2, 12]: 98 | Plant response rating, Lambsquarters [2, 13]: 100 | Plant response rating, Lambsquarters [2, 14]: 100 | Plant response rating, Lambsquarters [2, 15]: 100 | Plant response rating, Lambsquarters [2, 16]: 100 | Plant response rating, Soybean (soybean (Glycine max); [9]): 55 | Plant response rating, Soybean (soybean (Glycine max); [10]): 80 | Plant response rating, Soybean (soybean (Glycine max); [11]): 95 | Plant response rating, Soybean (soybean (Glycine max); [12]): 95 | Plant response rating, Soybean (soybean (Glycine max); [13]): 5 | Plant response rating, Soybean (soybean (Glycine max); [14]): 10 | Plant response rating, Soybean (soybean (Glycine max); [15]): 25 | Plant response rating, Soybean (soybean (Glycine max); [16]): 25 | Plant response rating, Crabgrass, Large [3, 17]: 100 | Crabgrass, Large plant response rating ([3]; Postemergence, 500 g ai/ha): 100 | Plant response rating, Crabgrass, Large [3, 18]: 100 | Plant response rating, Crabgrass, Large [3, 19]: 100 | Plant response rating, Rice (0 to 100 scale, 0 is no effect, 100 is complete control) (rice (Oryza sativa)): 50 | Plant response rating, Blackgrass [4, 9]: 50 | Plant response rating, Blackgrass [4, 10]: 60 | Plant response rating, Blackgrass [4, 11]: 75 | Plant response rating, Blackgrass [4, 12]: 85 | Plant response rating, Blackgrass [4, 13]: 85 | Plant response rating, Blackgrass [4, 14]: 90 | Plant response rating, Blackgrass [4, 15]: 90 | Plant response rating, Blackgrass [4, 16]: 90 | Plant response rating, Barnyardgrass [5, 17]: 90 | Barnyardgrass plant response rating ([5]; Postemergence, 500 g ai/ha): 90 | Plant response rating, Barnyardgrass [5, 18]: 100 | Plant response rating, Barnyardgrass [5, 19]: 100 | Plant response rating, Morningglory [6, 17]: 90 | Morningglory plant response rating ([6]; Postemergence, 500 g ai/ha): 90 | Plant response rating, Morningglory [6, 18]: 80 | Plant response rating, Morningglory [6, 19]: 90 | Plant response rating, Barnyardgrass (0 to 100 scale, 0 is no effect, 100 is complete control) [7]: 75 | Plant response rating, Pigweed [8, 17]: 100 | Pigweed plant response rating ([8]; Postemergence, 500 g ai/ha): 100 | Plant response rating, Pigweed [8, 18]: 100 | Plant response rating, Pigweed [8, 19]: 100
